The values below come from ChEMBL document CHEMBL6134862, “Discovery of WEE1 Kinase Inhibitors with Potent Activity against Patient-Derived, Metastatic Colorectal Cancer Organoids” (J Med Chem, 2025).

Structures are written as SMILES.

For data set [1] the following is noted: mouse, in vivo, po, 10 mg/kg, 24 h.
Data set [2] is described as follows: in vivo. The settings on record: Swiss outbred, mouse, po, 10 mg/kg.
The nature of data set [3]: in vivo. The following applies: Swiss outbred, mouse, iv, 3 mg/kg.
A short description of data set [4]: in vivo. The settings on record: Swiss outbred, mouse, iv, 3 mg/kg. The source holds these as a separate data set.
A short description of a further data set: physchem. The settings on record: buffer, pH 7.4.
Data set [5] in a line: in vivo. The settings on record: Swiss outbred, mouse, iv, 3 mg/kg. This is another data set of the same source.

With `C=CCn1c(=O)c2cnc(Nc3ccc(N4CCN(C)CC4)cc3)nc2n1-c1cccc(C(C)(C)O)n1` [ADAVOSERTIB], the AUC in data set [1] came to 0.067 µM·h. This compound also returned a maximum concentration (Cmax) at 24 h in the data set “in vivo [2]” of 26 nM. Moreover, the AUC(0-t) at 24 h in the data set “in vivo [3]” was found to be 0.21 µM·h. The compound also registered a clearance at 24 h in the data set “in vivo [4]” of 75 mL/min/kg. This compound returned a chromatographic logD in “physchem” of 3.4. Moreover, the distribution volume (Vd) at 24 h in “in vivo [5]” was 1.27 L/kg.
